Experimental data reported in patent US9242973B2, “Chromane compounds” (CoMentis, Inc., priority 2012, dated 2016).

Tested on: Aβ production in SK-N-BE(2) neuroblastoma cells
Assay: Test Example 3: Aβ production inhibition in cell (Aβ40 ELISA, SK-N-BE(2))
Conditions: Homo sapiens, SKNBE2, 6 h, read-out: Test Example 3 IC50, SK-N-BE(2) cells, 6 hours, Aβ40 ELISA normalized by viability

SMILES	IC50
NC1=NC2(CO1)c1cc(-c3cncc(Cl)c3)ccc1OCC21CC1 (stereo not drawn) [RP 107]	460 nM
CC#Cc1cncc(-c2ccc3c(c2)C2(COC(N)=N2)C2(COC2)C2(CCC2)O3)c1 (stereo not drawn) [RP 109]	48 nM
CC#Cc1cncc(-c2ccc3c(c2)C2(COC(N)=N2)C2(COC2)C(C)(C)O3)c1 (stereo not drawn) [RP 110]	9.2 nM
CC#Cc1cncc(-c2ccc3c(c2)C2(COC(N)=N2)C2(CC2)CO3)c1 (stereo not drawn) [RP 111]	140 nM
CC#Cc1cncc(-c2cc3c(cc2F)OCC2(CC2)C32COC(N)=N2)c1 (stereo not drawn) [RP 112]	660 nM
CC#Cc1cncc(-c2ccc3c(c2)C2(COC(N)=N2)C2(CCC2)CO3)c1 (stereo not drawn) [RP 113]	470 nM
N#Cc1ncccc1-c1ccc2c(c1)C1(COC(N)=N1)C1(COC1)C1(CCC1)O2 (stereo not drawn) [RP 115, 3-(2″-aminotrispiro[cyclobutane-1,2′-chromene-4′,4″-[1,3]oxazole-3′,3′″-oxetan]-6′-yl)pyridine-2-carbonitrile]	1100 nM
NC1=NC2(CO1)c1cc(-c3cncc(C(F)F)c3)ccc1OC1(CCC1)C21COC1 (stereo not drawn) [RP 118]	990 nM
N#Cc1cncc(-c2ccc3c(c2)C2(COC(N)=N2)C2(COC2)C2(CCC2)O3)c1 (stereo not drawn) [RP 120]	2300 nM
COc1cc(-c2ccc3c(c2)C2(COC(N)=N2)C2(COC2)C2(CCC2)O3)c(F)cn1 (stereo not drawn) [RP 122]	1100 nM
NC1=NC2(CO1)c1cc(-c3cccc(F)c3)ccc1OC1(CCC1)C21COC1 (stereo not drawn) [RP 125]	580 nM
COc1cccc(-c2ccc3c(c2)C2(COC(N)=N2)C2(COC2)C2(CCC2)O3)c1 (stereo not drawn) [RP 126]	1200 nM
Cc1cccc(-c2ccc3c(c2)C2(COC(N)=N2)C2(COC2)C2(CCC2)O3)c1 (stereo not drawn) [RP 127]	1800 nM
N#Cc1cccc(-c2ccc3c(c2)C2(COC(N)=N2)C2(COC2)C2(CCC2)O3)c1 (stereo not drawn) [RP 128]	1500 nM
CCOc1cc(-c2ccc3c(c2)C2(COC(N)=N2)C2(COC2)C2(CCC2)O3)cc(C(F)(F)F)c1 (stereo not drawn) [RP 129]	7300 nM
NC1=NC2(CO1)c1cc(-c3cc(F)ccc3F)ccc1OC1(CCC1)C21COC1 (stereo not drawn) [RP 130]	1700 nM
CCOc1cccc(-c2ccc3c(c2)C2(COC(N)=N2)C2(COC2)C2(CCC2)O3)c1 (stereo not drawn) [RP 131]	3200 nM
N#C/C=C/c1cccc(-c2ccc3c(c2)C2(COC(N)=N2)C2(COC2)C2(CCC2)O3)c1 (stereo not drawn) [RP 132]	1200 nM
CCOc1cc(F)cc(-c2ccc3c(c2)C2(COC(N)=N2)C2(COC2)C2(CCC2)O3)c1 (stereo not drawn) [RP 133]	2800 nM

SMILES	IC50
NC1=NC2(CO1)c1cc(C3=CCCCC3)ccc1OC1(CCC1)C21COC1 (stereo not drawn) [RP 135]	1800 nM
COc1ccc(F)c(-c2ccc3c(c2)C2(COC(N)=N2)C2(COC2)C2(CCC2)O3)c1 (stereo not drawn) [RP 136, 6′-(2-fluoro-5-methoxyphenyl)trispiro[cyclobutane-1,2′-chromene-4′,4″-[1,3]oxazole-3′,3′″-oxetan]-2″-amine]	660 nM
COc1cccc(-c2ccc3c(c2)C2(COC(N)=N2)C2(COC2)C2(CCC2)O3)c1F (stereo not drawn) [RP 137]	830 nM
NC1=NC2(CO1)c1cc(-c3cccc(F)c3F)ccc1OC1(CCC1)C21COC1 (stereo not drawn) [RP 138]	1500 nM
CC1(C)Oc2ccc(-c3cccc(Cl)c3)cc2C2(COC(N)=N2)C12COC2 (stereo not drawn) [RP 139]	140 nM
CC1(C)Oc2ccc(-c3cccc(C4CC4)c3)cc2C2(COC(N)=N2)C12COC2 (stereo not drawn) [RP 140]	410 nM
CC1(C)Oc2ccc(-c3cccc(C(F)(F)F)c3)cc2C2(COC(N)=N2)C12COC2 (stereo not drawn) [RP 141]	1300 nM
COc1cccc(-c2ccc3c(c2)C2(COC(N)=N2)C2(COC2)C(C)(C)O3)c1 (stereo not drawn) [RP 142]	150 nM
CCOc1cccc(-c2ccc3c(c2)C2(COC(N)=N2)C2(COC2)C(C)(C)O3)c1 (stereo not drawn) [RP 144]	460 nM
CC1(C)Oc2ccc(-c3cc(F)cc(Cl)c3)cc2C2(COC(N)=N2)C12COC2 (stereo not drawn) [RP 146, 6′-(3-chloro-5-fluorophenyl)-2′,2′-dimethyldispiro[1,3-oxazole-4,4′-chromene-3′,3″-oxetan]-2-amine]	210 nM
CC1(C)Oc2ccc(-c3cc(F)cc(F)c3)cc2C2(COC(N)=N2)C12COC2 (stereo not drawn) [RP 147]	170 nM
Cc1cc(F)cc(-c2ccc3c(c2)C2(COC(N)=N2)C2(COC2)C(C)(C)O3)c1 (stereo not drawn) [RP 148]	480 nM
CC1(C)Oc2ccc(-c3cc(F)ccn3)cc2C2(COC(N)=N2)C12COC2 (stereo not drawn) [RP 149]	1100 nM
CC1(C)Oc2ccc(-c3cncc(Cl)n3)cc2C2(COC(N)=N2)C12COC2 (stereo not drawn) [RP 150]	450 nM
Cc1cnc(Cl)c(-c2ccc3c(c2)C2(COC(N)=N2)C2(COC2)C(C)(C)O3)c1 (stereo not drawn) [RP 151]	280 nM
CC1(C)Oc2ccc(-c3cc(Cl)cnc3Cl)cc2C2(COC(N)=N2)C12COC2 (stereo not drawn) [RP 152]	110 nM
CC1(C)Oc2ccc(-c3cc(F)cnc3Cl)cc2C2(COC(N)=N2)C12COC2 (stereo not drawn) [RP 153]	130 nM
CC1(C)Oc2ccc(-c3cc(Cl)cnc3F)cc2C2(COC(N)=N2)C12COC2 (stereo not drawn) [RP 154]	32 nM
COc1ncc(Cl)cc1-c1ccc2c(c1)C1(COC(N)=N1)C1(COC1)C(C)(C)O2 (stereo not drawn) [RP 155]	630 nM

SMILES	IC50
CC1(C)Oc2ccc(-c3cccnc3Cl)cc2C2(COC(N)=N2)C12COC2 (stereo not drawn) [RP 156]	180 nM
Cc1cc(-c2ccc3c(c2)C2(COC(N)=N2)C2(COC2)C(C)(C)O3)cnc1F (stereo not drawn) [RP 157]	660 nM
CC1(C)Oc2ccc(-c3cc(F)ncc3Cl)cc2C2(COC(N)=N2)C12COC2 (stereo not drawn) [RP 158]	370 nM
CC1(C)Oc2ccc(-c3cnc4[nH]ccc4c3)cc2C2(COC(N)=N2)C12COC2 (stereo not drawn) [RP 168]	310 nM
CC1(C)Oc2ccc(-c3cc(C#N)ccc3F)cc2C2(COC(N)=N2)C12COC2 (stereo not drawn) [RP 170]	400 nM
CNC(=O)c1cc(F)cc(-c2ccc3c(c2)C2(COC(N)=N2)C2(COC2)C(C)(C)O3)c1 (stereo not drawn) [RP 171]	3100 nM
CC1(C)Oc2ccc(-c3cncc(Cl)c3)cc2C2(COC(N)=N2)C12COC2 (stereo not drawn) [RP 173]	73 nM
CC1(C)Oc2ccc(-c3ccc4[nH]ccc4c3)cc2C2(COC(N)=N2)C12COC2 (stereo not drawn) [RP 174, 6′-(1H-indol-5-yl)-2′,2′-dimethyldispiro[1,3-oxazole-4,4′-chromene-3′,3″-oxetan]-2-amine]	3400 nM
CC1(C)Oc2ccc(-c3cccc4[nH]ncc34)cc2C2(COC(N)=N2)C12COC2 (stereo not drawn) [RP 176]	850 nM
CC1(C)Oc2ccc(-c3ccc4[nH]ncc4c3)cc2C2(COC(N)=N2)C12COC2 (stereo not drawn) [RP 177]	1500 nM
CC1(C)Oc2ccc(-c3ccc4nonc4c3)cc2C2(COC(N)=N2)C12COC2 (stereo not drawn) [RP 178]	810 nM
CC1(C)Oc2ccc(-c3cccc4cccnc34)cc2C2(COC(N)=N2)C12COC2 (stereo not drawn) [RP 179]	1400 nM
CC1(C)Oc2ccc(-c3cccc4cnccc34)cc2C2(COC(N)=N2)C12COC2 (stereo not drawn) [RP 180]	490 nM
COC/C=C/c1ccc2c(c1)C1(COC(N)=N1)C1(COC1)C(C)(C)O2 (stereo not drawn) [RP 181]	820 nM
CC1(C)Oc2ccc(-c3ccc4c(c3)OCO4)cc2C2(COC(N)=N2)C12COC2 (stereo not drawn) [RP 182]	2500 nM
CC1(C)Oc2ccc(-c3c(F)ccc(F)c3F)cc2C2(COC(N)=N2)C12COC2 (stereo not drawn) [RP 185]	760 nM
NC1=NC2(CO1)c1cc(NC(=O)c3ncc(Br)cn3)ccc1OCC21CC1 (stereo not drawn) [RP 189]	43 nM
COc1cnc(C(=O)Nc2ccc3c(c2)C2(COC(N)=N2)C2(CC2)CO3)cn1 (stereo not drawn) [RP 193]	81 nM
N#Cc1ccc(C(=O)Nc2ccc3c(c2)C2(COC(N)=N2)C2(CC2)CO3)nc1 (stereo not drawn) [RP 196]	53 nM
